According to US20240409552A1, “GUAIANOLIDE OLIGOMERS, PREPARATION METHOD AND APPLICATION” (KUNMING INSTITUTE OF BOTANY, CHINESE ACADEMY OF SCIENCES, priority 2021, published 2024):

Assays:
Type in all cases: cell-based
Huh7 cells = test: MTT antihepatoma assay, Huh7 cells; conditions: Homo sapiens, Huh-7, 48 h incubation
Procedure: (§1) • (1). […] The plates were measured at 490 nm using a microplate reader (BIO-RAD, USA). The inhibitory ratio was calculated as [(A490 negative−A490 treated)/(A490 negative−A490 blank)]×100%. The IC50 values were calculated with GraphPad Prism 5 (GraphPad Software, California, USA). Repeat the experiment three times.

SK-Hep-1 cells = test: MTT antihepatoma assay, SK-Hep-1 cells; conditions: Homo sapiens, SK-HEP1, 48 h incubation
Procedure: as §1

HepG2 cells = test: MTT antihepatoma assay, HepG2 cells; conditions: Homo sapiens, 48 h incubation
Procedure: as §1

SMILES | IC50 (Huh7 cells) [µM] | IC50 (SK-Hep-1 cells) [µM] | IC50 (HepG2 cells) [µM]
C=C1C(=O)O[C@@H]2C3=C([C@H]4C[C@]3(C)[C@]3(C4)C(=O)O[C@@H]4C5C(=C(C)CC[C@H]43)CC[C@@]5(C)O)[C@@](C)(O)CC[C@@H]12 (stereo partly drawn) [Compound 2] | 11.9 | 16.5 | 5.9
C=C1C(=O)O[C@@H]2C3=C([C@H]4C[C@]3(C)[C@]3(C4)C(=O)O[C@@H]4C5=C([C@H]6C[C@]5(C)[C@]5(C6)C(=O)O[C@@H]6C7=C([C@H]8C[C@]7(C)[C@]7(C8)C(=O)O[C@@H]8[C@H]9C(C)=CC[C@@]9%10O[C@@]%10(C)CC[C@@H]87)[C@@](C)(O)CC[C@H]65)[C@@](C)(O)CC[C@H]43)[C@@](C)(O)CC[C@@H]12 [Compound 4] | 10.9 | 7.9 | 14.7
CNC(=O)c1cc(Oc2ccc(NC(=O)Nc3ccc(Cl)c(C(F)(F)F)c3)cc2)ccn1 [sorafenib, reference compound] | 10.9 | 22.5 | 12.8

Further lines, results first:

IC50 (Huh7 cells) [µM] | IC50 (SK-Hep-1 cells) [µM] | IC50 (HepG2 cells) [µM] | SMILES
20.2 | 11.2 | 12.8 | C=C1C(=O)O[C@@H]2C3=C([C@H]4C[C@]3(C)[C@]3(C4)C(=O)O[C@H]4[C@H]3CCC(C)=C3C[C@H]5O[C@@]5(C)[C@@H]34)[C@@](C)(O)CC[C@@H]12 [Compound 1]
6.8 | 7.2 | 6.2 | C=C1C(=O)O[C@@H]2C3=C([C@H]4C[C@]3(C)[C@]3(C4)C(=O)O[C@@H]4C5=C([C@H]6C[C@]5(C)[C@]5(C6)C(=O)O[C@@H]6[C@H]7C(C)=CC[C@@]78O[C@@]8(C)CC[C@H]65)[C@@](C)(O)CC[C@H]43)[C@@](C)(O)CC[C@@H]12 [Compound 3]
